# No end group written: not given here.
# Key:
# Format in all cases: cell-based
# [1] = tested on: S. aureus
# Method: (§1) Regarding the antimicrobial polypeptide of the present invention (samples 1 to 33) and the polypeptides of comparative samples 1 to 3, the antimicrobial activities (minimum inhibitory concentration: MIC) with respect to gram-negative bacteria (E. coli) and gram-positive bacteria (S. aureus) were determined by a liquid medium dilution technique using a 96-well microplate.
# (§2) More specifically, liquid bouillon media (“NUTRIENT BROTH Dehydraged” manufactured by DIFCO) in a polypeptide concentration of 500, 250, 125, 62.5, 31.3, 15.6, 7.8, 3.9, 1.9, 1.0 and 0.5 μM were prepared, and filled in a 96-well microplate. On the other hand, bacteria suspension (about 2×10^6 cells/mL) that had been stationary cultured at 37° C. for 18 hours with LB Broth, Lennox (manufactured by DIFCO) were inoculated to each well of the 96-well microplate in an equal amount to that of the pharmaceutical solution (the above-described polypeptide-containing bouillon medium). After inoculation, culture was started in an incubator at 37° C., and it was examined based on the turbidity after 24 hours and 48 hours whether or not bacteria are present. The minimum of the polypeptide concentrations in which no increase in the turbidity caused by bacteria at the time of measurement was observed was defined as MIC in this example.
# (§3) The unit of MIC in Table 2 is μM. […]
# [2] = tested on: E. coli
# Method: as §1, §2, §3
# [3] = tested on: Bacillus cereus IFO3001; details: IFO3001, 24 h
# Method: as §2
# (§4) Next, regarding the polypeptides of the samples 16, 17, 10, 14, and 20, the same antimicrobial test (MIC measurement test) as in Example 2 was performed with respect to various bacteria (see Table 3), and the antimicrobial spectra of these polypeptides were evaluated.
# [4] = tested on: Pseudomonas aeruginosa ATCC10145; details: ATCC10145, 24 h
# Method: as §2, §4
# [5] = tested on: Bacillus brevis IFO15304
# Method: as §2, §4
# [6] = tested on: Staphylococcus aureus IFO12732; details: IFO12732, 24 h
# Method: as §2, §4
# [7] = tested on: Bacillus subtilis ATCC6633; details: ATCC6633, 24 h
# Method: as §2, §4
# [8] = tested on: Staphylococcus aureus RN450 (*MSSA); details: RN450 (*, 24 h)
# Method: as §2, §4
# [9] = tested on: Escherichia coli IFO12713; details: IFO12713, 24 h
# Method: as §2, §4
# [10] = tested on: Staphylococcus aureus IID1677 (MRSA); details: IID1677, 24 h
# Method: as §2, §4
# [11] = tested on: Bacillus cereus IFO15305; details: IFO15305, 24 h
# Method: as §2, §4
# [12] = tested on: Klebsiella pneumoniae ATCC4352; details: ATCC4352, 24 h
# Method: as §2, §4
# [13] = tested on: Salmonella typhimurium IFO1324; details: murium IFO1324, 24 h
# Method: as §2, §4
# [14] = tested on: Escherichia coli O157:H7 sakai; details: O157:H7, 24 h
# Method: as §2, §4
# [15] = tested on: Micrococcus luteus IFO12708; details: IFO12708, 24 h
# Method: as §2, §4
# [16] = tested on: Bacillus pumilus IFO3813
# Method: as §2, §4
# [17] = tested on: Staphylococcus aureus COL (MRSA)
# Method: as §2, §4
# [18] = tested on: Bacillus subtilis IFO3134; details: IFO3134, 24 h
# Method: as §2, §4
# [19] = tested on: Proteus vulgaris ATCC13315; details: ATCC13315, 24 h
# Method: as §2, §4
# [20] = tested on: Pseudomonas aeruginosa IFO3080; details: IFO3080, 24 h
# Method: as §2, §4
# [21] = tested on: Salmonella enteritidis IFO3313; details: IFO3313, 24 h
# Method: as §2, §4
sequence,measurement,setting,value
"RKKKRKVRKKKRKV [sample 20, RKKKRKVRKKKRKV]",antimicrobial activity (MIC) S. aureus after 24h,[1]; 24 h,1.9 µM
same,antimicrobial activity (MIC) S. aureus after 48h,[1]; 48 h,1.9 µM
same,antimicrobial activity (MIC) E. coli after 24h,[2]; 24 h,1.9 µM
same,antimicrobial activity (MIC) E. coli after 48h,[2]; 48 h,1.9 µM
same,antimicrobial activity after 24 hours: MIC,[3],>267.9 µM
same,antimicrobial activity after 24 hours: MIC,[4],4.2 µM
same,antimicrobial activity after 24 hours: MIC,[5],133.9 µM
same,antimicrobial activity after 24 hours: MIC,[6],4.2 µM
same,antimicrobial activity after 24 hours: MIC,[7],2.1 µM
same,antimicrobial activity after 24 hours: MIC,[8],33.5 µM
same,antimicrobial activity after 24 hours: MIC,[9],8.4 µM
same,antimicrobial activity after 24 hours: MIC,[10],8.4 µM
same,antimicrobial activity after 24 hours: MIC,[11],133.9 µM
same,antimicrobial activity after 24 hours: MIC,[12],4.2 µM
same,antimicrobial activity after 24 hours: MIC,[13],8.4 µM
same,antimicrobial activity after 24 hours: MIC,[14],8.4 µM
same,antimicrobial activity after 24 hours: MIC,[15],8.4 µM
same,antimicrobial activity after 24 hours: MIC,[16],16.7 µM
same,antimicrobial activity after 24 hours: MIC,[17],33.5 µM
same,antimicrobial activity after 24 hours: MIC,[18],4.2 µM
same,antimicrobial activity after 24 hours: MIC,[19],8.4 µM
same,antimicrobial activity after 24 hours: MIC,[20],4.2 µM
same,antimicrobial activity after 24 hours: MIC,[21],4.2 µM

# From patent US7482328B2, “Antimicrobial polypeptide and utilization thereof” (Toagosei Co., Ltd., priority 2002, dated 2009)
